From PubChem BioAssay (NCI)
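Where inhibition never reached the appropriate level, the endpoint shown equals the highest concentration tested. Otherwise, values were interpolated linearly from a five-concentration, 48-hour dose response in 96-well plates. Abbreviation: GI50, concentration required for 50% inhibition of growth. The concentration for full growth arrest is given as TGI.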

Key:
Experiment in all cases: inhibition of tumour cell growth, NCI panel, 48 h
CCRF-CEM leukemia = tested on: CCRF-CEM leukemia
HOP-92 NSCLC = tested on: HOP-92 NSCLC
HS 578T breast = tested on: HS 578T breast
IGROV1 ovarian = tested on: IGROV1 ovarian
MCF7 breast = tested on: MCF7 breast
RPMI-8226 leukemia = tested on: RPMI-8226 leukemia
OVCAR-5 ovarian = tested on: OVCAR-5 ovarian
EKVX NSCLC = tested on: EKVX NSCLC
HT29 colon = tested on: HT29 colon
NCI-H460 lung = tested on: NCI-H460 lung

Row | Compound | GI50 (CCRF-CEM leukemia) [nM] | TGI (CCRF-CEM leukemia) [µM] | GI50 (HOP-92 NSCLC) [nM] | TGI (HOP-92 NSCLC) [µM] | GI50 (HS 578T breast) [µM] | TGI (HS 578T breast) [µM] | GI50 (IGROV1 ovarian) [nM] | TGI (IGROV1 ovarian) [µM] | GI50 (MCF7 breast) [µM] | TGI (MCF7 breast) [µM] | GI50 (RPMI-8226 leukemia) [µM] | TGI (RPMI-8226 leukemia) [µM] | GI50 (OVCAR-5 ovarian) [µM] | TGI (OVCAR-5 ovarian) [µM] | GI50 (EKVX NSCLC) [µM] | TGI (EKVX NSCLC) [µM] | GI50 (HT29 colon) [nM] | TGI (HT29 colon) [µM] | GI50 (NCI-H460 lung) [nM] | TGI (NCI-H460 lung) [µM]
1 | C/C1=C/C(=O)O[C@@H]2C[C@@H](CC[C@H](C)/C=C\C=C\CC1)O[C@@](O)([C@@H]1CSC(=O)N1CO)C2 | 87.2 | > 41.4 | 16.5 | 0.0614 | 0.0174 | 0.0606 | 25.1 | 0.0928 | 13.1 | 37.7 | 0.161 | 23.1 | 0.0367 | > 33.9 | 0.144 | > 100 | 56.2 | 20.3 | 241 | 34.1
2 | CCCCCCCCCCCCNC(=O)[C@H]1CSC(c2cc3ccccc3s2)N1 (stereo partly specified) | 725 | 1.68 | 5410 | 10.5 | 0.777 | 1.86 | 923 | 2.51 | 4.02 | 9.15 | 6 | 15.3 | 4.16 | 8.53 | 0.951 | 2.69 | 1740 | 5.87 | 1020 | 2.5
3 | COc1cc(-c2nc(NC(C)=O)sc2-c2ccnc(NCCNS(=O)(=O)c3ccccc3)n2)ccc1Cl | 4030 | > 100 | 2520 | 72 | 6.61 | > 100 | 6750 | > 100 | 2.4 | > 100 | 3.77 | > 100 | 9.77 | > 100 | 5.25 | > 100 | 2940 | > 100 | 3080 | 10.8
4 | COc1ccccc1-c1cc(/C=C2\C(=O)Nc3ncc(Br)cc32)cc(Br)c1O | 9760 | > 25 | 1210 | > 25 | 7.67 | > 25 | 10400 | > 25 | 8.05 | > 25 | 9.59 | > 25 | > 25 | > 25 | 11.2 | > 25 | 18900 | > 25 | 11600 | > 25
5 | CC(C)CC1C(=O)N2CCC[C@H]2C2(O)O[C@](NC(=O)C3C=C4c5cccc6[nH]c(Br)c(c56)C[C@H]4N(C)C3)(C(C)C)C(=O)N12 (stereo partly specified) | 8530 | > 100 | 1910 | > 100 | 68.9 | > 100 | 6790 | > 100 | 4.92 | > 100 |  | > 100 |  | > 100 | 3.7 | > 100 |  | > 100 | 6600 | > 100
6 | Cc1nc2ccccn2c1NC(=O)NNC(=S)Nc1ccc(Br)cc1 | 40100 | > 100 | 49400 | > 100 | 54.8 | > 100 | 48900 | > 100 | 29.4 | > 100 | 41.6 | > 100 | 32.2 | > 100 | 46.4 | > 100 | 24900 | 69.8 | 34100 | > 100
7 | CCOC(CCCNCCCn1c2c(c3cc(OC)c(OC)cc3c1=O)C(=O)c1cc3c(cc1-2)OCO3)OCC | 759 | 6.24 | 126 | 8.47 | 5.76 | 12.7 | 889 | 9.66 | 1.19 | 9.3 | 0.308 | 8.45 | 10.2 | 17.3 |  |  | 5120 | 10.9 | 884 | 7.3
8 | Cc1ncc(C(=O)Nc2ccc(CN3CCN(C)CC3)c(C(F)(F)F)c2)cc1C#Cc1cnc(N)c2cnccc12 | 90.6 | 3.46 | 29.9 | 0.258 | 0.058 | 0.696 | 29.4 | 0.282 | 1.18 | 3.69 | 0.249 | 2.13 | 0.076 | 10.6 | 0.358 | 12.9 | 21 | 1.19 | 64.7 | 1.54
9 | Cc1ccc2c(c1)C(C)Cc1c(ncnc1-n1cnc3cc(C)ccc31)N2C (stereo unspecified) | 36.2 | 17.6 | 301 | 5.21 | 0.0459 | 23 | 63.3 | 15.7 | 0.0345 | 12.8 | 0.0406 | 3.89 | 0.048 | 22.2 | 0.0634 | 23.8 | 30.2 | 0.195 | 34 | 4.39
10 | COc1ccc(CCN2CCCN3C2=Nc2ccccc2S3(=O)=O)cc1 | 444 | > 100 | 348 | 13.4 | 0.577 | > 100 | 1510 | > 100 | 0.329 | > 100 | 0.563 | 53.5 | 20.2 | > 100 | 18.8 | > 100 | 323 | 17.5 | 429 | 44.1
11 | COC(=O)[C@@]1(Cc2ccccc2)[C@H]2c3cc(C(=O)N4CCCC4)n(Cc4ccc(OC)c(OC)c4)c3C[C@H]2CN1C(=O)c1ccccc1 | 16400 | > 50 | 13300 | 28 | 6.56 | 19.4 |  |  | 13.8 | 44.8 | 10.8 | 23.5 | 9.19 | 21.8 | 9.84 | 21.2 | 9120 | 25 | 9120 | 18.9
12 | COc1ccc(-c2nsc3c2NC(=O)CC3c2ccc(F)cc2)cc1 (stereo unspecified) | 5270 | > 100 | 1770 | 23.7 | 4.48 | > 73.8 | 5440 | > 100 | 3.29 | > 100 | 4.94 | > 100 | 5.94 | > 100 |  |  | 2840 | 27.6 | 3460 | > 100
